# Legend:
# [1] = test system: primary hepatocytes from C57BL/6J mouse; experiment: CCK8 cell viability, primary hepatocytes; type: cell-based; conditions: concentrations below 7.5 μmol/L, 12 h
# Experimental: The cellular viability was assessed by conducting CCK8 assays in primary hepatocytes from C57BL/6J mouse and HepG2 cell line. Specifically, 2,000 cells per well were plated in 96-well plates and cultured with different concentrations of ISOGK for 12 h. Following this, cell absorption was quantified using a CCK8 kit (CA1210, Solarbio, Beijing, China), adhering strictly to the manufacturer's guidelines. The presented data represents the findings from three independent experiments, with each experiment consisting of four replicates.
# [2] = test system: primary mouse hepatocytes; experiment: Nile Red staining of primary hepatocytes from high fat diet mice; type: cell-based; conditions: varying concentrations, 12 h, hepatocytes from 16-week high fat diet mice
# Text: Primary hepatocytes were isolated from male C57BL/6J mice fed a high-fat diet (HFD, 60 kcal% fat, 20 kcal% protein, 20 kcal% carbohydrate; D12492; RESEARCH DIETS, New Brunswick, NJ, USA) for 16 weeks according to our previous study. At the end of experiment, the mice were initially anaesthetized and subsequently subjected to perfusion with Liver Perfusion Medium (17701-038; Thermo Fisher Scientific, Waltham, MA, USA) via the portal vein, followed by Liver Digestion Medium (17701-034, Thermo Fisher Scientific, Waltham, MA, USA). Following perfusion, the liver was extracted and passed through a 100 μm cell strainer. The resulting cells were subjected to centrifugation at 50×g for 1 min, after which cells were incubated in DMEM supplemented with 10% FBS (F05-001-B160216; Bio-One Biotechnology, Guangzhou, China) and 1% penicillin-streptomycin (15140-122; Gibco by Invitrogen, Carlsbad, CA, USA) at 37 °C.
# For the Nile Red staining procedure, primary mouse hepatocytes were treated with IOSGK at varying concentrations for a period of 12 h. Subsequently, the cells were fixed with 4% paraformaldehyde (PFA) and stained with Nile Red (N1142, Invitrogen, Carlsbad, CA, USA). The intracellular accumulation of lipids was visualized and quantified using a laser scanning confocal microscope (TCS SP8; Leica, Wetzlar, Germany).
# ACLY = target: T1, ACLY (Mesocricetus auratus, UniProt A0A1U7RF50); experiment: ACLY activity in vivo, hamster liver extracts (MDH-coupled method)
# T1 construct: from tissue; host or cells: liver of hamsters and of Ldlr-/- hamsters dosed with ISOGK
# T1 sequence (A0A1U7RF50 1-1101): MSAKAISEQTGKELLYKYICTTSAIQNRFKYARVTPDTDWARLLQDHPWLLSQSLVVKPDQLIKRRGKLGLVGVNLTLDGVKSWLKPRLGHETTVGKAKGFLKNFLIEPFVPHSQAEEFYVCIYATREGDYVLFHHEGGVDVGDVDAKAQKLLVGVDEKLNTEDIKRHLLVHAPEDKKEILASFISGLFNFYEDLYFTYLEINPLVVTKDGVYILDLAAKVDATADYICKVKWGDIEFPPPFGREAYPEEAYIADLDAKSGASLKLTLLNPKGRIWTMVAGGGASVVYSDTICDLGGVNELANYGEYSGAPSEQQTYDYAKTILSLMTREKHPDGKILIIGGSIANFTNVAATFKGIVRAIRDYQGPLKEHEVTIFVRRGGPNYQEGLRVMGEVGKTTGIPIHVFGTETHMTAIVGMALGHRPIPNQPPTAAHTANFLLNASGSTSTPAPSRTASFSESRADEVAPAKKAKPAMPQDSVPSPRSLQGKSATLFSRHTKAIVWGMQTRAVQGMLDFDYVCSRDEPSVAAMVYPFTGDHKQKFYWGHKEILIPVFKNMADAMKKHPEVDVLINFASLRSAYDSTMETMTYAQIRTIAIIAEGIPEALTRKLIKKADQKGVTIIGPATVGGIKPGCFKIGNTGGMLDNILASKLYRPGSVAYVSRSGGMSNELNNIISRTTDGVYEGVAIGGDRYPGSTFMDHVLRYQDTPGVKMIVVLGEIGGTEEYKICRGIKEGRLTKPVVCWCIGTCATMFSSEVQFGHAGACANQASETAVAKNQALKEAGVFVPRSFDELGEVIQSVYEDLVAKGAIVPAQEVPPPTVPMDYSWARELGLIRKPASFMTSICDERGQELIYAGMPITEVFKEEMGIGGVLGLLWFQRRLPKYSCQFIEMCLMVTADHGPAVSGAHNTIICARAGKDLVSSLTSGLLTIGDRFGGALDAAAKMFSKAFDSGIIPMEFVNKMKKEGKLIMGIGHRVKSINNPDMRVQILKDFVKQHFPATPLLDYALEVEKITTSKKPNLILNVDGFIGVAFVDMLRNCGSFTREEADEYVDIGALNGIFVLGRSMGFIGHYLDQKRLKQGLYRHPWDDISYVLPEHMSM
# Experimental: The activity of the ACLY enzyme was assayed utilizing malate dehydrogenase (MDH)-coupled method kits (BC4240, Solarbio, Beijing, China). In summary, liver extracts were incubated in a reaction buffer comprising 20 mM citrate, 10 mM MgCl₂, 10 mM DTT, 0.5 U/ml of malic dehydrogenase, 0.33 mM CoASH, and 0.14 mM NADH, both in the presence and absence of 5 mM ATP. The quantity of oxaloacetate produced by ACLY catalysis was determined by measuring the alteration in absorbance at 340 nm, which corresponds to the depletion of NADH during the MDH-catalyzed reaction. After accounting for background variations in absorbance in the absence of ATP, the relative ACL activities were computed by normalizing the data to the weight of the liver tissue.
# AMPK = experiment: Western blot of p-AMPK in AML12 and HepG2 cells; type: cell-based; conditions: 5 µM, 12 h after 50 µM palmitic acid
# Experimental: Western blotting was performed as previously described. In brief, whole-cell lysates from cultured cells and animal tissue were prepared using 1× sample buffer, followed by boiling at 95 °C for 10 min. Subsequently, SDS-PAGE was employed to separate the samples, which were then transferred onto a nitrocellulose membrane (Pall, NY, USA). Subsequently, the membrane was incubated in a blocking buffer for one h at room temperature. Following the removal of the blocking buffer, the blots were incubated with primary antibodies (1:1,000 dilution) at 4 °C overnight. The membrane was washed thrice for 10 min each, using 1× Tris-buffered saline with 0.1% Tween-20 (TBST). Subsequently, the membranes were incubated with IRDye® 680RD Goat anti-Mouse IgG (H + L) or IRDye® 800CW Goat anti-Rabbit IgG (H + L) (1:10,000 dilution, LI-COR, Lincoln, Nebraska, USA) at room temperature for 1 h. Visualization of the blots was carried out using the Li-COR CLx infrared imaging system. GAPDH (60004-1-Ig, Proteintech, Chicago, IL, USA), ACLY (67166-1-Ig, Proteintech, Chicago, IL, USA), LDLR (10785-1-AP, Proteintech, Chicago, IL, USA), β-Actin (66009-1-Ig, Proteintech, Chicago, IL, USA), AMPK (10929-2-AP, Proteintech, Chicago, IL, USA), p-AMPK^T172 (2535, Cell Signaling Technology, Danvers, MA, USA).
smiles,measurement,setting,value
"COc1ccc(-c2cc(=O)c3c(O)cc(O)c(-c4cc(-c5cc(=O)c6c(O)cc(O)cc6o5)ccc4OC)c3o2)cc1 [ISOGK, Isoginkgetin]",cytotoxicity (CCK-8),[1],no significant cytotoxicity
same,hepatic lipid levels (Nile Red staining),[2],reduced hepatic lipid levels
same,ACLY enzyme activity in liver tissue,ACLY; Ldlr-/- hamsters,significantly inhibits ACLY activity
same,ACLY enzyme activity in liver tissue,"ACLY; high cholesterol diet hamsters, 4 weeks",significantly inhibits ACLY activity
same,p-AMPK protein expression,AMPK,activate AMPK
